System: CytoD-treated RBC
Experiment: Recovery of CytoD-treated RBCs (Wright Giemsa stain and immunofluorescence)
Type: cell-based, human
Conditions: CytoD 3 h, immunofluorescence
Procedure: Cytochalasin D (CytoD) is known to inhibit actin polymerization or depolymerization at barbed ends. The recovery effects of Wnts CM in RBCs was tested after incubation with CytoD in order to evaluate the potential effect of Wnt3/5 on polymerized actin in RBCs (FIGS. 12A-B). As show in FIGS. 12A-B, RBCs incubated with a medium containing Cyto D for 3 h, and then with Wnt 3/5 CM (in the absence of CytoD) for 6 h, were stained using two different methods. […] (FIG. 12B).

SMILES: C=C1[C@@H](C)[C@H]2[C@H](Cc3ccccc3)NC(=O)[C@]23[C@H](OC(C)=O)/C=C/[C@@](C)(O)C(=O)[C@@H](C)C/C=C/[C@H]3[C@@H]1O [CytoD, Cytochalasin D]
- actin state in RBCs after CytoD treatment: aggregates of cytoplasm actin
